Series [1] concerns iCell cardiomyocytes CM2 (human iPS cell-derived cardiomyocytes). Kind of series: Drug safety test-2: motion test method using live cell imaging device, CM2 cultured for 15 days. Conditions: for beating rate (BR), relative to dose0 / contractile velocity (CV), relative to dose0 / relaxation velocity (RV), relative to dose0: day 15, doses of Table 7, 120 min isoproterenol, 15 min milrinone. The series is classed as cell-based. The procedure: The drug used was isoproterenol and milrinone. […] First, the measurement as dose0 was performed without adding drugs.
For the cell responsiveness after drug administration, a motion test method using a live cell imaging device (SI8000, manufactured by Sony Corporation) was performed to investigate the effect on the beating rate, the contractile velocity, and the relaxation velocity.
CM2 on day 15 of maintenance culture was used, and video data was first obtained as dose0 using SI8000 (manufactured by Sony Corporation) without adding drugs. Immediately after the measurement, each drug at the concentration of each dose was added to the same well plate, and video data was obtained after 120 minutes for isoproterenol and after 15 minutes for milrinone. The addition test of each drug was performed at n=5.
The beating rate (BR), the contractile velocity (CV), and the relaxation velocity (RV) were analyzed from the video data of SI8000, and the effects of the drugs on the motion of the cells were compared.
The measurement data was corrected with the average value of dose0 of no adding drugs (each measurement value/measurement value of dose0), and the relative value with setting the measurement value of dose0 as 1 was determined.

Series [2] deals with iCell cardiomyocyte CM2 (human iPS cell-derived cardiomyocytes). The experiment in a line: Drug safety test-1: arrhythmia measurement by Ca-imaging (CQ1). The series is classed as cell-based. The following applies: for duration (20% waveform width of Ca transient) / interval between peaks of Ca transient: cumulative dose1-dose3 of Table 2. The procedure:
(§1) The drug was dissolved in DMSO and cumulatively administered. First, the measurement as dose0 was performed without adding drugs. […] Subsequently, immediately after the measurement, the drug was added to the same well, respectively so that the concentration was dose2, and the measurement was performed after 15 minutes. The same was done for dose3.
(§2) For the cell responsiveness after the drug administration, an arrhythmia measurement method by Ca-imaging using a confocal imaging device (CQ1, manufactured by Yokogawa Electric Corporation) and a motion test method using a live cell imaging device (SI8000, manufactured by Sony Corporation) were performed to investigate the effect on the beating rate and the line width of the beating peak.
To CM2 on day 6 of maintenance culture, a fluorescent Ca indicator (EarlyTox carditotoxicity kit, manufactured by Molecular Devices, LLC.) was added, and living cells were stained. First, the change in Ca fluorescence intensity associated with the contraction of cardiomyocytes was measured as Dose0 in CQ1 without adding drugs. Immediately after the measurement, each drug at the concentration of Dose1 was added to the same well plate, and the change in Ca fluorescence intensity was measured after 15 minutes. For Dose2 and Dose3, the drug was cumulatively administered in the same manner, and the change in Ca fluorescence intensity was measured. The addition test of each drug was performed at n=6.
The significant difference test was performed between the subject group in which DMSO was added and the drug addition group in CM2 cultured in the planar plate and CM2 cultured the aligned plate.
For the side effects seen from the waveform changes of Ca transient, early after depolarization (EAD) and delayed after depolarization (DAD), small regular waveforms (VT-like), and reaction (waveform) disappearance were recorded. The“−” in the table indicates the state in which no arrhythmia or the like has occurred. The degree of arrhythmia is mild for EAD, moderate for DAD, and severe for vt-like.

The test system is the same in series [3]. The experiment in a line: Drug safety test-1: motion test method using live cell imaging device (SI8000). It is filed as cell-based. Conditions: for CRD (corrected with beating rate): Dose1 1 μM, Dose2 3 μM, Dose3 10 μM; for beating rate (BR) / relaxation velocity (RV): day 5, cumulative dose1-dose3 of Table 2; for CRD (corrected with the beating rate): Dose2 0.3 μM and Dose3 1 μM, vs DMSO group. As to the method:
as §1, §2
CM2 on day 5 of maintenance culture was used, and video data was first obtained as Dose0 using SI8000 (manufactured by Sony Corporation) without adding drugs. Immediately after the measurement, each drug at the concentration of dose1 was added to the same well plate, and video data was obtained after 15 minutes. For Dose2 and Dose3, the drug was cumulatively administered in the same manner, and video data was obtained. The addition test of each drug was performed at n=6.
The beating rate (BR), the contractile velocity (CV), the relaxation velocity (RV), and the contraction-relaxation duration (CRD) were analyzed from the video data of S18000, and the effects of the drugs on the motion of the cells were compared. The contraction-relaxation duration (CRD) was corrected by the following equation with reference to the equation of Frederica to correct variation due to the beating rate (BR).
For the side effects seen from the change in the parameters of SI8000, early after depolarization (EAD) and delayed after depolarization (DAD), small regular waveforms (VT-like), and reaction (waveform) disappearance were recorded. Changes in waveforms not classified into EAD or DAD were described as arrhythmia. The “-” in the table indicates the state in which no arrhythmia or the like has occurred.
The degree of arrhythmia is mild for EAD, moderate for DAD, and severe for vt-like.

The test system is the same in series [4]. Kind of series: Drug safety test-3 (anti-cancer drug): motion test method using live cell imaging device, CM2 cultured for 15 days. Conditions: 3 μM; for beating rate (BR), change rate vs pre-measurement: day 15, after 24 and 48 hours.
Protocol: iCell cardiomyocytes (iCell Cardiomyocyte v2.0, manufactured by FUJIFILM Cellular Dynamics, Inc.) were used as human iPS cell-derived cardiomyocytes (hereinafter referred to as CM2). The culture was performed by the following procedure.
In the same procedure as in the above (10), CM2 was seeded at a concentration of 6×10^4 cells/well in the aligned plate (96 well plate, ND Cell Aligner) and the planar plate (96 well plate). A maintenance culture was performed in a 37° C. CO2 incubator, and the drug was administered on day 15 with setting the day of seeding as day 0.
The drug was dissolved in DMSO and administered. First, as a pre-measurement, a measurement was performed without adding the drug. Immediately after the measurement, the drug dissolved in DMSO was added to each well so that the concentration was 3 PM, and the measurement was performed after 24 hours and 48 hours. The measurement was performed in the same manner as the (10-1) measurement by motion test method using live cell imaging device described above.
For the measurement data, the measurement value at the concentration of 3 μM was corrected with the average value of the pre-measurement without adding the drug (measurement value at 3 μM/measurement value of pre-measurement), and the change rate with setting the measurement value of the pre-measurement as 1 was determined.
In addition, a T test was performed between the planar plate and the aligned plate in the drug addition group. For the comparison group with a P value of 0.01 or less, the graph was marked.
DMSO used as the solvent was added so that the final concentration was 0.01%. The effect of DMSO was confirmed by measuring 0.01% DMSO addition group after 24 hours and 48 hours. The measurement data were processed in the same manner as the drug addition group.
Series [5] concerns CM2 (human iPS cell-derived cardiomyocytes). Kind of series: Measurement of oxygen consumption rate with β-oxidation inhibitor. The series is classed as cell-based. Conditions: day 27, 50 μM; for OCR with addition of Etomoxir: 10 to 70 minutes. The procedure:
The measurement was performed using an oxygen consumption rate plate assay kit (manufactured by DOJINDO LABORATORIES, E297).
To the well plate in which CM2 was cultured, an oxygen probe diluted with medium was added and allowed to stand for 30 minutes in a plate reader incubated at 37° C. in advance. Next, a sample solution containing a β-oxidation inhibitor Etomoxir that inhibits a fatty acid metabolism enzyme at the final concentration 50 μM was added, and mineral oil was immediately added dropwise to block the supply of oxygen.
After allowing the well plate to stand for 5 minutes in a plate reader incubated at 37° C., the fluorescence intensity was measured over time. The fluorescent plate reader was measured under conditions of an excitation wavelength of 495 nm/fluorescence wavelength of 650 nm, and the data acquisition was performed for at least 168 minutes every 10 minutes.
The measurement was performed with 6 wells without addition of Etomoxir as control and 3 wells with addition of 50 μM Etomoxir.
The oxygen concentration (pmol) was calculated with the calculation sheet attached to the oxygen consumption rate plate assay kit, and the oxygen consumption rate (pmol/min) was calculated from the oxygen concentration reduction amount for 60 minutes of 10 to 70 minutes after the start of the measurement.

The mark [6] stands for this setting: aligned and planar plates, day 6.

`Cc1[nH]c(=O)c(C#N)cc1-c1ccncc1` [Milrinone]: in series [1] (aligned plate), the “beating rate (BR), relative to dose0” value was “increased”; the “contractile velocity (CV), relative to dose0” value is reported as “increased”; the “relaxation velocity (RV), relative to dose0” value is listed as “increased”. Further, in series [1] (milrinone), the “RV, aligned plate compared to planar plate” value was “significantly increased”. For the same compound, in series [1] (milrinone dose3 (300 μM)), the “contractile velocity (CV), aligned plate compared to planar plate” value is “significantly increased” and the “relaxation velocity (RV), aligned plate compared to before the drug addition” value is “predominantly increased”. Further, the “beating rate (BR), aligned plate compared to before the drug addition” value in series [1] (milrinone, all doses (30, 100, 300 μM)) was “predominantly increased”. Further, in series [1] (planar plate), the “beating rate (BR), relative to dose0” value was “did not change”; the “contractile velocity (CV), relative to dose0” value was “tended to reduce”; the “relaxation velocity (RV), relative to dose0” value is recorded as “tended to reduce”.
For the compound `COc1cc(N)c(Cl)cc1C(=O)NC1CCN(CCCOc2ccc(F)cc2)CC1OC` (stereo not drawn) [Cisapride], in series [2] (setting [6]), the “duration (20% waveform width of Ca transient)” value is “extended in a dose-dependent manner” and the “interval between peaks of Ca transient” value is listed as “extended in a dose-dependent manner”. The incidence of arrhythmia in series [2] (aligned plate, cisapride Dose1 0.01 μM to Dose3 0.1 μM, wells of 6) is recorded as 1/6. The “difference between the value at Dose0 and at Dose3 (duration, interval), aligned plate versus planar plate” value in series [2] (cisapride, Dose3 0.1 μM) is given as “smaller”. Further, the incidence of arrhythmia result in series [2] (planar plate, cisapride 0.01-0.1 μM) is reported as “No arrhythmia occurred”.
With `CC(C)NCC(O)c1ccc(O)c(O)c1` (stereo not drawn) [Isoproterenol], in series [3] (aligned and planar plate, any concentration (1, 3, 10 μM)), the “arrhythmia or the like” value is on record as “No arrhythmia or the like was observed”. Also, in series [3] (aligned plate), the “CRD (corrected with beating rate)” value is “extended”, the “beating rate (BR)” value is recorded as “tended to increase” and the “relaxation velocity (RV)” value is on record as “tended to increase”. In series [3] (planar plate, 1, 3, 10 μM), the “change of CRD compared with the solvent (DMSO)” value was “largely different from that of the solvent (DMSO)”. In series [3] (planar plate), the “CRD (corrected with beating rate)” value is recorded as “extended”, the “beating rate (BR)” value is recorded as “tended to increase” and the “relaxation velocity (RV)” value is on record as “tended to increase”. In series [2] (setting [6]), the “duration (20% waveform width of Ca transient)” value was “Reduction was observed” and the “interval between peaks of Ca transient” value was “Reduction was observed”. Further, the arrhythmia result in series [2] (aligned and planar plates, up to high concentration (Dose3, 10 μM)) is “arrhythmia did not occur”. In series [2] (planar plate, isoproterenol 1, 3, 10 μM), the reduction in duration result is “small”. Also, in series [1] (aligned plate), the “beating rate (BR), relative to dose0” value was “increased”; the “contractile velocity (CV), relative to dose0” value was “increased”; the “relaxation velocity (RV), relative to dose0” value is on record as “increased”. Besides, the “relaxation velocity, aligned plate compared to planar plate” value in series [1] (isoproterenol dose2 (0.3 μM) and dose3 (3 μM)) is reported as “increased”. For the same compound, in series [1] (planar plate), the “beating rate (BR), relative to dose0” value is on record as “increased”; the “contractile velocity (CV), relative to dose0” value is “tended to reduce”; the “relaxation velocity (RV), relative to dose0” value is “increased”.
On to `C=C[C@H]1C[N@@]2CC[C@H]1C[C@@H]2[C@@H](O)c1ccnc2ccc(OC)cc12` [Quinidine], for which the “incidence of moderate to severe arrhythmia (DAD, VT-like)” value is 0/6 in series [2] (aligned plate, quinidine Dose1, 3 μM, wells of 6); 0/6 in series [2] (aligned plate, quinidine Dose2, 10 μM, wells of 6); 6/6 in series [2] (aligned plate, quinidine Dose3, 30 μM, wells of 6). Moreover, the “incidence of moderate to severe arrhythmia” value in series [2] (planar plate, quinidine Dose1, 3 μM, wells of 6) was 0/6; in series [2] (planar plate, quinidine Dose2, 10 μM, wells of 6) it was 0/6; in series [2] (planar plate, quinidine Dose3, 30 μM, wells of 6), 4/6. For the same compound, the “duration of Ca transient, planar plate compared to aligned plate” value in series [2] (quinidine Dose2, 10 μM) is recorded as “longer extension”. For the same compound, the “interval of Ca transient, planar plate compared to aligned plate” value in series [2] (quinidine Dose2, 10 μM) was “longer extension”. Moreover, in series [2] (quinidine Dose2, 10 μM), the “peak height of Ca transient, planar plate compared to aligned plate” value is “significantly weaker decrease”. In addition, in series [2] (quinidine Dose3, 30 μM), the contraction force entry was “greatly reduced”. Further, in series [2] (quinidine Dose3, 30 μM), the “waveform of Ca transient” value is “changed to a higher frequency waveform”.
Turning to `Cc1cccc(CCN2CCC(C(=O)c3ccc(NS(C)(=O)=O)cc3)CC2)n1` [E-4031], in series [3] (aligned plate), the “CRD (corrected with the beating rate)” value is on record as “significantly reduced”, the “beating rate (BR)” value is “reduced” and the “relaxation velocity (RV)” value was “reduced”. Also, in series [3] (planar plate), the “CRD (corrected with the beating rate)” value is recorded as “significantly reduced”, the “beating rate (BR)” value was “reduced” and the “relaxation velocity (RV)” value is “reduced”. Also, the “CRD (corrected with the beating rate), planar plate compared with aligned plate” value in series [3] (planar plate, E-4031) is listed as “reduced more remarkably”. In series [2] (E-4031 0.1 μM, day 6), the “Duration of Ca transient, planar plate compared with aligned plate” value is “slightly longer”. Moreover, the “Duration of Ca transient, planar plate compared with aligned plate” value in series [2] (E-4031 0.3 μM, day 6) is “significantly longer”. In addition, the “Duration of Ca transient, planar plate” value in series [2] (E-4031 1 μM, day 6) is given as “not significantly but remarkably extended”.
Regarding `COc1cccc2c1C(=O)c1c(O)c3c(c(O)c1C2=O)C[C@@](O)(C(=O)CO)C[C@@H]3O[C@H]1C[C@H](N)[C@H](O)[C@H](C)O1` [Doxorubicin, doxorubicin], in series [4], the “beating rate, aligned plate compared to planar plate” value is “significantly increased” and the “beating rate, result after 48 hours compared with after 24 hours” value is reported as “more increased”. Besides, the “RV, aligned plate compared to planar plate” value in series [4] (after 48 hours) was “significantly increased”. Also, in series [4] (aligned plate), the “relaxation velocity (RV), change rate vs pre-measurement” value is “increased” and the “beating rate (BR), change rate vs pre-measurement” value is “increased”. In series [4] (planar plate), the “relaxation velocity (RV), change rate vs pre-measurement” value is on record as “increased” and the “beating rate (BR), change rate vs pre-measurement” value was “increased”.
For `CCOC(=O)[C@@]1(CCCCCCOc2ccc(Cl)cc2)CO1` [Etomoxir], in series [5] (aligned plate), the “OCR compared to OCR before addition” value was determined as 11.0% and the “OCR with addition of Etomoxir” value amounted to 7.0 pmol/min. Further, in series [5] (planar plate), the “OCR compared to OCR before addition” value stood at 98.3% and the “OCR with addition of Etomoxir” value was 77.8 pmol/min.

The values are drawn from US20260002931A1, “CULTURED CELL SHEET AND METHOD FOR PRODUCING SAME; METHOD FOR EVALUATING COMPOUND OR DRUG; AND METHOD FOR EVALUATING QUALITY OF CULTURED CELL SHEET” (OJI HOLDINGS CORPORATION, priority 2022, published 2026).
